Laboratory results taken from article PMC9206137, “Synergistic anti-SARS-CoV-2 activity of repurposed anti-parasitic drug combinations” (BMC Pharmacology & Toxicology, 2022).
Values joined by “and” are separate entries in the source; they are usually repeats but may differ in a detail not shown here. Equal entries are not always repeated.

Assays:
[1] = Cell viability assay (MTT) in Vero E6 cells; settings: African green monkey, %cell viability, Vero E6, replicates
Description: Subsequently, the cell viability was assessed using MTT dyes (Invitrogen) in duplicate (Supplementary file 1). The procedure was described elsewhere. The viability of drug-treated cells was expressed as percent cell viability relative to 0.5% DMSO-treated cells.

[2] = system: SARS-CoV-2; settings: because of the expression of TMPRSS2; cited from earlier work
[3] = system: SARS-CoV-2; test: Antiviral activity against SARS-CoV-2 in Vero E6 cells, one-step qRT-PCR (single drugs, two-drug combinations, synergy analysis); settings: for %inhibition (qRT-PCR) / % inhibition: replicates; for % inhibition: Vero E6 cells
[4] = system: SARS-CoV-2; test: Antiviral activity against SARS-CoV-2 in Vero E6 cells, plaque assay; format: cell-based

SMILES: CCN(CC)CCCC(C)Nc1ccnc2cc(Cl)ccc12 (stereo not shown) [Chloroquine, chloroquine]
- viability at 48 h, 40 uM ([1]; chloroquine 40 uM): 78.5%
- viability at 48 h, 160 uM ([1]; chloroquine 160 uM): 34.5%
- inhibition of SARS-CoV-2 in human lung cells [2]: could not inhibit
- %inhibition (qRT-PCR) ([3]; Vero E6, chloroquine 0.15625 uM): 14.20% and 15.40% and 13.50%
- %inhibition (qRT-PCR) ([3]; Vero E6, chloroquine 0.3125 uM): 29.59% and 23.98%
- %inhibition (qRT-PCR) ([3]; Vero E6, chloroquine 0.625 uM): 47.22% and 54.26% and 49.79%
- %inhibition (qRT-PCR) ([3]; Vero E6, chloroquine 1.25 uM): 51.48% and 58.46% and 54.05%
- %inhibition (qRT-PCR) ([3]; Vero E6, chloroquine 2.5 uM): 67.75% and 70.05% and 70.73%
- %inhibition (qRT-PCR) ([3]; Vero E6, chloroquine 5 uM): 88.11% and 84.26% and 88.40%
- % inhibition ([3]; Chloroquine 0.2125 uM alone): 32.17% and 30.26% and 30.74%
- % inhibition ([3]; Chloroquine 0.425 uM alone): 35.38% and 45.66% (2×)
- % inhibition ([3]; Chloroquine 0.85 uM alone): 58.25% and 55.25% and 59.67%
- % inhibition ([3]; Chloroquine 1.7 uM alone): 76.18% and 70.48% and 73.21%
- IC50 ([3]; read-out: IC50 (μM) qRT-PCR, Vero E6, MOI 0.01, 48 hours, single drug): 0.89 µM
- inhibition at 0.625 µM ([4]; Severe acute respiratory syndrome coronavirus 2, Vero C1008, Vero E6, chloroquine 0.625 uM, replicates): 50%
- inhibition at 1.25 µM ([4]; Severe acute respiratory syndrome coronavirus 2, Vero C1008, Vero E6, chloroquine 1.25 uM, replicates): 61.4%
- inhibition at 2.5 µM ([4]; Severe acute respiratory syndrome coronavirus 2, Vero C1008, Vero E6, chloroquine 2.5 uM, replicates): 70%
- inhibition at 5 µM ([4]; Severe acute respiratory syndrome coronavirus 2, Vero C1008, Vero E6, chloroquine 5 uM, replicates): 85.1%
- IC50 ([4]; Severe acute respiratory syndrome coronavirus 2, Vero C1008, Vero E6, MOI 0.01, 48 hours, single drug): 0.83 µM
- %inhibition (plaque assay) ([4]; Vero E6, chloroquine 0.15625 uM, replicates): 5.00% and 10.00%
- %inhibition (plaque assay) ([4]; Vero E6, chloroquine 0.3125 uM, replicates): 15.00% and 6.06% and 11.00%
- %inhibition (plaque assay) ([4]; Vero E6, chloroquine 0.625 uM, replicates): 55.50%
- %inhibition (plaque assay) ([4]; Vero E6, chloroquine 1.25 uM, replicates): 73.20% and 66.30%
- %inhibition (plaque assay) ([4]; Vero E6, chloroquine 2.5 uM, replicates): 75.00% and 69.50%
- %inhibition (plaque assay) ([4]; Vero E6, chloroquine 5 uM, replicates): 87.00% and 85.00%
